Assay results taken from US10358419B2, “1,3-dipolar [70]fulleropyrrolidinium iodide derivatives” (priority 2015, dated 2019).

Legend:
[1] = tested on: VSV-G pseudotyped HIV-1 luciferase reporter virus (HIVluc); format: cell-based
[2] = Solubility (UV-vis spectroscopy, solvents); conditions: saturated solutions
[3] = biological target: recombinant HIV-1 protease (Human immunodeficiency virus type 1 group M subtype B, UniProt P03366); experiment: HIV-1 protease in vitro activity assay (FRET peptide)
HIV-1NL4-3 = experiment: HIV-1 NL4-3 replication assay in SupT1 cells (p24 ELISA)

Row | Compound | Effect on HIV-1 infectivity (FIG. 1) [1] | infectivity as compared to control (100%) infectivity [1] [%] | reduction of infectivity / inhibition [1] [%] | solubility in H2O:DMSO (9:1) [2] [nM] | inhibition of protease activity ([3]; at 80 μM) [%] | inhibition of protease activity ([3]; at 40 (unit not given)) [%] | Effect on HIV-1 replication (FIG. 9C) (HIV-1NL4-3; 3 μM at time of infection, washed after 24 h) | Effect on HIV-1NL4-3 replication (FIG. 3) (HIV-1NL4-3; 6 μM for 24 hrs, given 24 hours after infection, p24 followed seven additional days)
1 | β-N,N-dimethyl[70]fulleropyrrolidinium iodide [Compound 2c] | potently blocked the infectivity of HIV-1 | 0.003 | 71 | 0.252 |  |  |  | 
2 | α-N,N-dimethyl[70]fulleropyrrolidinium iodide [Compound 2b] | potently blocked the infectivity of HIV-1 | 0.047 | 52 |  | 65 | 24 |  | 
3 | CC(C)(C)NC(=O)[C@@H]1CN(Cc2cccnc2)CCN1C[C@@H](O)C[C@@H](Cc1ccccc1)C(=O)N[C@H]1c2ccccc2C[C@H]1O [Indinavir, reference compound] |  |  | 96.6 |  |  |  |  | 
4 | mixture of α, β and γ-N—N-dimethyl[70]fulleropyrrolidinium iodide [Compound 2a] | potently blocked the infectivity of HIV-1 | 0.026 | 72 |  |  |  | potent inhibitory effect | able to impair viral replication
